One data set deals with locomotor activity. The settings on record: open field test and different animal models of anxiety; cited from earlier work.
Data set [1] addresses T1, recombinant rat α2β2γ2 GABAA receptors (Rattus norvegicus, UniProt P23576).
T1 construct: expressed in transfected cells; host or cells: HEK 293
The data set can be described thus: Whole-cell patch-clamp, modulation of GABA (EC20)-induced currents in transfected HEK 293 cells, α2β2γ2. Type of data set: cell-based. The note with it: α2β2γ2. How it is done: For electrophysiological recording HEK-293 cells were passaged and replated on 12-mm glass coverslips located in 9.6-cm plastic dishes filled with 10 ml of Minimum Essential Medium (MEM, Gibco) supplemented with 158 mg/l sodium bicarbonate, 2 mM glutamine (Gibco), 100 U/ml penicillin-streptomycin (Gibco), and 10% foetal calf serum (Gibco). Cultures were maintained at 37° C. in a humidified […]/5% CO2 atmosphere for 2-3 days.
Transfection with recombinant rat GABAA receptors was carried out as described in detail (Korpi and Lüddens, 1993, Lüddens and Korpi, 1995b). Briefly, HEK 293 cells were transfected in triple combinations using the phosphate precipitation method with rat GABAA receptor cDNAs in eukaryotic expression vectors (Pritchett, 1990) for the α, β and γ subunits. For optimal receptor expression, final concentrations (μg vector DNA per 9.6 cm tissue culture plate) were: α1, 2; α2 4.8; α3, 1.2; α4, 10; α5, 0.8; β2, 0.4; and γ2S, 0.3. The γ2S variant is abbreviated γ2 in the remainder of the text. To identify transfected cells all subunit combinations were co-transfected with 1 μg per plate of pNI-EGFP.
Two days after transfection single coverslips containing HEK 293 cells were placed in a recording chamber mounted on the movable stage of a fluorescence microscope (Olympus IX70) and perfused with a defined saline solution containing (in mM): 130 NaCl, 5.4 KCl, 2 CaCl2, 2 MgSO4, 10 glucose, 5 sucrose, and 10 HEPES (free acid), pH adjusted to 7.35 with about 35 mM NaOH. Transfected cells were identified by their green fluorescence due to the expression of the pNI-EGFP vector and ligand-mediated membrane currents of these cells were studied in the whole-cell configuration of the patch-clamp technique (Hamil et al., 1981). Patch-clamp pipettes were pulled from hard borosilicate capillary glass (0.5 mm ID, 1.5 mm OD, Vitrex, Science Products GmbH, Hofheim, Germany) using a horizontal puller (Sutter Instruments, CA, Model P-97) in a multi-stage process.
Seal resistances >1 GΩ were routinely obtained by applying gentle suction to the pipettes. Membrane rupture was monitored electrically as an increase in capacity. Pipette capacitance, membrane capacitance, and series resistance were electronically compensated to achieve minimal capacitative transients. A series resistance compensation of >60% was regularly used.
In all cells recorded the presence of the γ2 subunit in the heteropentamere was monitored by the application of 1 μM zolpidem plus the EC20 of GABA before testing the experimental drugs.
Responses of the cells were recorded by a patch-clamp amplifier (EPC-8, HEKA-Electronic, Lambrecht, Germany) in conjunction with a standard personal computer and the pClamp 8.1 software package (Axon Instruments, Foster City, Calif.). The standard holding-potential for the cells was −40 mV. Whole cell currents were low-pass filtered by an eight-pole Bessel filter at 5 or 3 kHz before being digitised by a Digidata 1322A interface (Axon Instruments, Foster City, Calif.) and recorded by the computer at a sampling rate of at least […].
Efficacy, potency, and GABAA receptor a subunit specificity of the new compound ELB139 was tested with the whole cell configuration of the patch-clamp technique by applying increasing drug concentration together with GABA of the approximate EC20 on green fluorescing cells. BZ binding site specificity of the new compound was tested on the same cells in an identical experimental setting with additionally applying 10 μM Ro15-1788.

Data set [2] concerns female Wistar rats, MK-801-induced stereotypies, hyperactivity and ataxia. The data set can be described thus: MK-801-induced behaviour, rat model of psychosis (Example 1). The note with it: MK-801 0.2 mg/kg i.p. Type of data set: in vivo. How it is done:
The behaviour induced by the NMDA antagonist MK-801 is generally accepted as a rat model of psychosis. MK-801 induces stereotypies, hyperactivity and ataxia in rats after intraperitoneal administration.
Locomotor activity of the rats is recorded by the MotiTest Apparatus (TSE, Bad Homburg, Germany). The test area consisted of a squared arena ([…] with protective plexiglass walls (20 cm of height) where rats could freely move. Horizontal movements were recorded by 32 infrared photocells arranged along the bottom of each wall of the arena. Vertical movements (rearings) were recorded by a horizontal row of 32 infrared photocells 12 cm above the floor. The following parameters are measured by the computer program “ActiMot” (TSE, Bad Homburg, Germany): • active time [s] and total distance travelled [m]
Stereotypies, divided into stereotyped sniffing and other stereotypies, and ataxia are scored by the experimenter every five minutes for one hour (12 intervals) according to the method described by Andiné et al. (1999). The scores of the 12 intervals are added for each parameter.
The day of experiment the female rats are placed in the laboratory and receive the test compound, the reference substance or vehicle at the appropriate time prior to test. MK-801 0.2 mg/kg is intraperitoneally administered 10 minutes prior to test.
At the beginning of the test the rats are placed in the centre of the squared arena of the MotiTest apparatus. Behaviour of the rats is recorded for one hour. After each run animals are removed and the boxes thoroughly cleaned and dried.

The mark [3] stands for this setting: 30 mg/kg p.o. 1 h prior to test.

pEC50: −log10 of the molar value. Entries after “also recorded” stand apart in the source; their conditions may differ.

T1 sequence (P23576 29-451): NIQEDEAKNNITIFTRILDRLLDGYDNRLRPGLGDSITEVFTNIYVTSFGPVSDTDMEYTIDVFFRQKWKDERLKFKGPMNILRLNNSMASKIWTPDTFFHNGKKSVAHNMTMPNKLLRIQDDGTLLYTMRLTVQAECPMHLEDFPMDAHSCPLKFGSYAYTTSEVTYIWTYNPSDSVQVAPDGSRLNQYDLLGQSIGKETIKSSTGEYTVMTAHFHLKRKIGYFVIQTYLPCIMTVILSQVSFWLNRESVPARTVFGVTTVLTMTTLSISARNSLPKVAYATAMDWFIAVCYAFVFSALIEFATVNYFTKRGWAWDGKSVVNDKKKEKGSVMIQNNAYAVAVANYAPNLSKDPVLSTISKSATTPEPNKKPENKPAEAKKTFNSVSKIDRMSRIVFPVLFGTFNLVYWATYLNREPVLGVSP

In general, pEC50 refers to the EC50 on a negative log10 scale, so that one unit is a factor of ten. `O=C1N=C(N2CCCCC2)CN1c1ccc(Cl)cc1` [ELB139, 1-(4-chlorophenyl)-4-piperidinoimidazolin-2-one]: the locomotor activity entry with locomotor activity is “did not show a significant reduction”. Moreover, the “modulation of GABA-induced currents (in words)” value in data set [1] (ELB139 0.01-30 μM) is “failed to evoke agonistic or inverse agonistic modulation; also recorded: no agonistic effect; also recorded: not at all active”. In data set [1] (applied with approximate GABA EC20, read-out: EC50 (ELB139)), the negative logarithm of the EC50 (pEC50) was less than 4.52. In data set [2] (setting [3]), the MK-801-induced ataxia result is “significantly reversed”, the MK-801-induced other stereotypies result is listed as “significantly reversed”, the MK-801-induced stereotyped sniffing entry was “significantly reversed” and the MK-801-stimulated activity result is “did not reduce”. Moreover, in data set [2] (setting [3]), the “total distance travelled increased by MK-801” value is given as “distinctly reduced”. Also, the “all parameters induced by MK-801” value in data set [2] (60 mg/kg p.o. 1 h prior to test) is given as “significantly reduced all parameters”.

Values taken from patent US20050032863A1, “Method of treating or preventing central nervous system disorders with compounds having selectivity for the alpha 3 subunit of the benzodiazepine receptor” (priority 2003, published 2005).
